Several values for one entry are separate records, joined by “and”; a condition that tells them apart may be missing. Equal values may be shown once.
Legend:
Format in all cases: cell-based
Red blood cells (RBC) [1] = experiment: RBC survival (cell count) after freezing/thawing or lyophilizing/rehydrating at 2.5 ml
Description: Red blood cells (RBC) were separated from whole blood received from the Israeli Blood Bank. The blood was centrifuged for 10 minutes at 1500 g and the plasma was discarded. […] Afterwards the supernatant was discarded, and an equal volume of cryopreservation solution selected from the solutions in Table I was added to the packed RBC. Different volumes (2.5-50 ml) of the RBC suspension were transferred to a 16-25 mm diameter glass test tube ([…], Israel). The experiment of freezing 200 ml of RBC suspension was done in a 2000 ml freezing bag (Baxter-Fenwal, USA). Samples were then either frozen and thawed in a water bath at 37° C. or lyophilized and rehydrated with double distilled water (DDW) at 37° C. Glass test tubes containing RBC were frozen in a modified MTG freezing apparatus, as described in WO 03/020874 (manufactured by IMT, Israel). The thermal gradient in the cooling unit was set to 5.5° C./mm or 10.5° C./mm or 15.5° C./mm (as detailed below) with final temperatures of -50° C., -100° C. or -150° C. […] During freezing the test tubes that contained only 2.5 ml samples were rotated at a rate of 56 rpm. Subsequent to freezing, biological material was taken from each test tube to test for cell viability. Lyophilization was performed in a commercial lyophilizer (Labconco, USA) with a condenser temperature of -82° C. for 72 hours. The biological material was is rehydrated by adding DDW to reach the sample's original volume. Frozen (but not lyophilized) material was thawed by immersion in a water bath at 37° C. for until it melted. Melting was observed visually. Cells were counted using the […] 60 cell counter (ABX, France), in accordance with the manufacturer's manual. This device provides a complete cell count (CBC) that includes parameters such as: cell number, hematocrit, mean cell volume, hemoglobin, etc. […] In these experiments the cell suspension volume was 2.5 ml.

Red blood cells (RBC) [2] = experiment: Post-thaw RBC hemolysis (cyanmethemoglobin assay, Drabkin's solution, Formula I); settings: 4.12 mM EGCG in 20% (w/v) Dextran 40, 0.8% NaCl; 1890° C./min; 24 hours at −80° C.
Description: In the following Examples, unless specifically said otherwise, free hemoglobin levels detection was done by using the cyanmethemoglubin assay using Drabkin's solution (Sigma, USA) and reading the absorbance at 540 nm using an ELISA reader (Bio Tek Instruments, USA). Hemoglobin (Hb) concentration was measured in the supernatant and in the pellet, and the hemolysis percentage was calculated using Formula I: […]
Freezing solution was mixed in a 1:1 ration with packed red blood cells.
RBC were frozen at a volume of 2.5 ml in a 16 mm diameter test tube (Manara, Israel) using the MTG freezing device. […] The test tubes were rotated during freezing at 60 rounds per minute. After freezing, samples were stored for 24 hours in a −80° C. freezer (Forma, USA). Thawing was performed by plunging the samples in a water bath at 37° C. for a period of time under a minute, when the samples visually appears to have been completely thawed.
Samples were rotated at 60 RPM.

Red blood cells (RBC) [3] = experiment: Freeze-dried and rehydrated RBC: cell number, MCV, hemolysis; settings: for % Hemolysis in Lyo cells / MCV, Lyo / number of Cells, Lyo: lyophilized and rehydrated
Description: Freezing was performed as described in Example 5A. After freezing, samples were transferred to a commercial lyophilizer (Labconco, USA). Samples were lyophilized for 72 hours, after which rehydration was performed by adding 2.4 ml double distilled water at 37° C. back to the samples. After rehydration samples were counted and mean cell volume (MCV) was measured using the Pentra 60 (ABX, France) automatic cell counter. Free hemoglobin levels were measured as described above and the hemolysis percentage was calculated using Formula I.

Red blood cells (RBC) [4] = experiment: Osmotic fragility of RBC; settings: 0.9 mg/ml EGCG, 20% dextran 40 kD, 0.8% NaCl
Description: The control group was whole blood. Portions of each of the EGCG supplemented and control were exposed to different sodium chloride concentrations of: 0.1, 0.2, 0.3, 0.4, 0.5, 0.6, 0.7, 0.8 and 0.9% (w/v).
Free hemoglobin was measured as described above and the hemolysis percentage was calculated using Formula I. The results of this experiment are shown in FIG. 8.

Red blood cells (RBC) [5] = experiment: Freezing RBC without thermal gradients at varying NaCl concentrations; settings: for Cell Number, Thawed / MCV, Thawed: 24 h at −80° C.
Description: Samples volume was 1 ml. The Samples were maintained for at least 10 min at 5° C. and then transferred to a metal plate in a conventional freezing device (Forma, USA) at −80° C. for a period of 24 h. […] The percentage shown, is the thawed samples as compared with a fresh sample.

Red blood cells (RBC) [6] = experiment: Hypothermic preservation of whole blood at 4° C.: cell count, MCV, ATP bioluminescence; settings: on arrival, 15 minutes after adding, 1 week later, versus PBS bag
Description: Whole blood units, 2 days old, 500 ml each, were received from the Israeli blood services. 2 ml PBS were added to one bag and 2 ml PBS comprising 0.236 gram GTE (Taiyo, China) were added to the other. This GTE contains ˜80% catechins which contained the at least the following polyphenols: 48% EGCG, 10.8% epigallocatechin (EGC), 1.4% DL-Catechin (DL-C; (2S,3R)-2-(3,4-Dihydroxyphenol)-3,4-dihydro-1(2H)-benzopyran-3,5,7-triol), 5.6% epicatechin (EC). 2.6% gallocatechin gallate (GCG) and 14.5% epicatechin gallate (ECG). The final concentration of GTE was 0.4725 mg/ml. During delivery and storage the blood was maintained in a refrigerator at 4° C. storage.
1 ml samples were taken from each bag at the following times: (a) when the units arrived, (b) 15 minutes after adding PBS of EGCG and (c) 1 week later. The samples were counted and the mean cell value was measured using the Pentra 60 (ABX, France).
ATP content of each sample was assayed using ATP Bioluminescence Kit CLS II (Roche, Switzerland) according to the manufacturer's manual. In this assay, light emission is in direct proportion to the amount of ATP in the sample.

[7] = system: Mononuclear cells (MNC) derived from umbilical cord blood (UCB); experiment: MNC viability by membrane integrity (SYBR14/PI) after freeze thawing or freeze drying; settings: for Mambrane integrity (%): 0.1M Trehalose in PBS
Description: Blood was separated on ficoll-paque gradient for 30 minutes at 1000 g. Afterwards the mononuclear layer was drawn out and washed twice in PBS for 10 minutes at 200 g. To each pellet one of the following freezing solutions was added:
2.5 ml of cell suspension were put in a 16 mm diameter glass test tube (Manara, Israel) and frozen using the MTG freezing apparatus (IMT, Israel). The temperature gradients were 1.5° C./mm and 0.428° C./mm, velocity was 0.2 mm/sec resulting in a cooling rate of 18° C./min and 5.1° C./min respectively. The first cooling rate was applied until the seeding temperature was reached. The samples were rotated at 56 rounds per minute (RPM).
After freezing samples were plunged into liquid nitrogen (LN), and then samples were either thawed at 37° C. in a water bath or put in a commercial lyophilizer (Labconco, USA) with a condenser temperature of −80° C. After drying the cells were rehydrated with DDW at 37° C.
Cells were counted using the PENTRA 60 cell counter, as described above. viability assessments were performed by evaluating the cells' membrane integrity using SYBR14 plus Propidium Iodide (PI) (Molecular Probes, USA) live/dead fluorescent staining. These stains are nucleic acid stains, SYBR14 is a membrane permeable molecule and PI can enter the cell only if the membrane is damaged.
(§1) C. In this example a freezing solution composed of 0.1M Trehalose and either 0.47 mg/ml EGCG (×2.5) or 1.89 mg/ml EGCG (×10) in PBS was used. Samples volume was 2.5 ml and samples were frozen as described above and then lyophilized. After being in the lyophilizer for 72 h, the samples were taken out and rehydrated with 2.4 ml of DDW at 37° C. After rehydration samples were assayed for CD3 using FACS (fluorescent-activated cell sorter) in accordance with the method described in Huiling et al. The Journal of Immunology 2003, 171: 4824-4829, with minor modifications.
Membrane integrity of the samples was evaluated before and after rehydration using SYBR 14 and PI (Molecular Probes, USA).

[8] = system: Mononuclear cells (MNC) derived from umbilical cord blood (UCB); experiment: CD3 expression by FACS of lyophilized, rehydrated MNC; settings: 0.1M Trehalose in PBS
Description: as §1

[9] = system: Mononuclear cells (MNC) derived from umbilical cord blood (UCB); experiment: MNC proliferation assay based on thymidine incorporation; settings: FIG. 9; cells lyophilized at ×10 EGCG (4.12 mM) versus ×2.5 EGCG (1.03 mM); 48 hour incubation
Description: In addition, a cell proliferation assay was performed. In brief, the hydrated cells were incubated for 48 hour after which a proliferation assay based on thymidine incorporation was carried out (Promega, USA). The results of the proliferation assay are depicted in FIG. 9, wherein the proliferation index of the cells is depicted as a function of their number at initial plating. […] In addition, as the cells' initial plating number increases so does the proliferation index. The almost linear proportion shown for one of the ×10 EGCG samples is similar to that observed with fresh cells

## O=C(O[C@@H]1Cc2c(O)cc(O)cc2O[C@@H]1c1cc(O)c(O)c(O)c1)c1cc(O)c(O)c(O)c1 [EGCG, Epigallocatechin gallate]
Red blood cells (RBC) [1]; frozen at 1,000° C./min, lyophilized, rehydrated with DDW
  RBC survival, 1B Rehydrated: 49.19%
Red blood cells (RBC) [1]; frozen at 1,000° C./min, thawed, not lyophilized, percentage of total fresh cells counted
  RBC survival, 1A Thawed: 84.53%
Red blood cells (RBC) [1]; frozen at 2,000° C./min, thawed, not lyophilized
  RBC survival, 2A Thawed: 72.92%
Red blood cells (RBC) [2]
  Post thaw hemolysis: 3.5%
Red blood cells (RBC) [3]; 1.03 mM EGCG
  MCV, % of lyo from fresh: 85.23%
  number of Cells, % of lyo cells from fresh: 67.22%
  MCV, Fresh: 88 μm^3
  % Hemolysis in Lyo cells: 56.18%
  MCV, Lyo: 75 μm^3
  number of Cells, Lyo: 2.83 10^9/ml
Red blood cells (RBC) [3]; 1.03 mM EGCG in 20% Dextran 40, 0.8% NaCl
  number of Cells, Fresh: 4.21 10^9/ml
Red blood cells (RBC) [3]; 4.12 mM EGCG
  MCV, % of lyo from fresh: 96.59%
  number of Cells, % of lyo cells from fresh: 63.32%
  MCV, Fresh: 88 μm^3
  % Hemolysis in Lyo cells: 51.8%
  MCV, Lyo: 85 μm^3
  number of Cells, Lyo: 2.9 10^9/ml
Red blood cells (RBC) [3]; 4.12 mM EGCG in 20% Dextran 40, 0.8% NaCl
  number of Cells, Fresh: 4.58 10^9/ml
Red blood cells (RBC) [4]; NaCl concentrations above 0.6% (w/v)
  hemolysis versus control (whole blood): no significant difference
Red blood cells (RBC) [4]; hypotonic environment (below 0.5% NaCl)
  hemolysis versus control (whole blood): lower hemolysis rates
Red blood cells (RBC) [5]; NaCl 0.6%
  Cell Number, % thawed compared with fresh: 100.00%
  MCV, % thawed compared with fresh: 120.22%
  Cell Number, Thawed: 4.12 10^9/ml
  MCV, Thawed: 107 μm^3
  Cell Number, Fresh: 4.12 10^9/ml
Red blood cells (RBC) [5]; NaCl 0.7%
  Cell Number, % thawed compared with fresh: 100.00%
  MCV, % thawed compared with fresh: 124.44%
  Cell Number, Thawed: 4.27 10^9/ml
  MCV, Thawed: 112 μm^3
  Cell Number, Fresh: 4.27 10^9/ml
Red blood cells (RBC) [5]; NaCl 0.8%
  Cell Number, % thawed compared with fresh: 100.00%
  MCV, % thawed compared with fresh: 118.89%
  Cell Number, Thawed: 4.71 10^9/ml
  MCV, Thawed: 107 μm^3
  Cell Number, Fresh: 4.71 10^9/ml
Red blood cells (RBC) [5]; NaCl 0.9% (Saline)
  Cell Number, % thawed compared with fresh: 75.50%
  MCV, % thawed compared with fresh: 101.11%
  Cell Number, Thawed: 3.42 10^9/ml
  MCV, Thawed: 91 μm^3
  Cell Number, Fresh: 4.53 10^9/ml
Red blood cells (RBC) [6]
  Cells counts: essentially the same
  MCV: essentially the same
[7]; FIG. 7, 0.412, 1.03, 2.06, 4.12 mM EGCG with 0.1M trehalose in PBS, after freeze thawing and after freeze drying
  viability, effect of EGCG concentration: viability increased with EGCG concentration
[7]; Fresh with 0.47 mg/ml EGCG
  Mambrane integrity (%): 97.36 ± 2.2%
[7]; Fresh with 1.89 mg/ml EGCG
  Mambrane integrity (%): 90.01 ± 4.3%
[7]; Lyophilized with 0.47 mg/ml EGCG, rehydrated
  Mambrane integrity (%): 55.1 ± 8.5% and 59.8 ± 1.4%
[7]; Lyophilized with 1.89 mg/ml EGCG, rehydrated
  Mambrane integrity (%): 79.31 ± 8.8% and 83.62 ± 5.7% and 88.4 ± 3.2% and 88.03 ± 5.6%
[8]; Lyophilized with 0.47 mg/ml EGCG
  CD3 (%): 80%
[8]; Lyophilized with 1.89 mg/ml EGCG
  CD3 (%): 81% and 83% and 82% and 78%
[9]
  proliferation index: higher proliferation index

Reference: patent US8512941B2, “Biological material and methods and solutions for preservation thereof” (Core Dynamics Limited, priority 2004, dated 2013)
